Activity calls are given as the source filed them.
Experiments:
[1] = molecular target: T1, RNA-binding protein pos-1 (Caenorhabditis elegans, UniProt G5EF15); test: disruptors of C. elegans POS-1 RNA interaction – biochemical, fluorescence polarization, dose response (AID 1964);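 also: purified POS-1 fused to maltose binding protein made in E. coli; potency of compounds blocking POS-1 binding to fluorescent RNA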
T1 sequence (G5EF15 whole entry): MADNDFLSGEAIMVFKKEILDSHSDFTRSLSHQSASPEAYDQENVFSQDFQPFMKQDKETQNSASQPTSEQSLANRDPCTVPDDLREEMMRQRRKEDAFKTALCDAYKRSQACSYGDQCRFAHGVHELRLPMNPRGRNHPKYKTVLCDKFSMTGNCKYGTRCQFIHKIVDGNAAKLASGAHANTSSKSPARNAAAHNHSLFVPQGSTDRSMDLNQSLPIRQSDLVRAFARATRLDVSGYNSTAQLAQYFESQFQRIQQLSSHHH

[2] = molecular target: T2, Zinc finger protein mex-5 (Caenorhabditis elegans, UniProt Q9XUB2); test: potency of MEX-5 RNA-binding blockers – biochemical, C. elegans, fluorescence polarization, dose response (AID 1960)
T2 sequence (Q9XUB2 whole entry): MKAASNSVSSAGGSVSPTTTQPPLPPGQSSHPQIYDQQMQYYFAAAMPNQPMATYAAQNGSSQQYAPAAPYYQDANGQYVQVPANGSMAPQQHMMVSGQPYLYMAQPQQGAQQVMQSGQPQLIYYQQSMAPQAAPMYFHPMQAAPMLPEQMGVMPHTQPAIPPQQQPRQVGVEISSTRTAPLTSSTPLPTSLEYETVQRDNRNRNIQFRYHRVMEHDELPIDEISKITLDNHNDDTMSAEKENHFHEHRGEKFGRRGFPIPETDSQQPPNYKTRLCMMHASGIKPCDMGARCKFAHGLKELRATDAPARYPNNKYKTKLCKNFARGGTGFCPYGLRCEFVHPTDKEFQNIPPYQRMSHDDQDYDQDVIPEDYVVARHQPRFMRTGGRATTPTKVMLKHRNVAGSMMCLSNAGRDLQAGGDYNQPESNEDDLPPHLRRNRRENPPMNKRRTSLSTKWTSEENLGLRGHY

[3] = molecular target: T3, Carboxy-terminal domain RNA polymerase II polypeptide A small phosphatase 1 (Homo sapiens, UniProt Q9GZU7); test: CTDSP1 inhibitors, concentration-response, biochemical, absorbance readout, ultra-high-throughput screen actives (AID 540297); type: functional
T3 sequence (Q9GZU7 whole entry): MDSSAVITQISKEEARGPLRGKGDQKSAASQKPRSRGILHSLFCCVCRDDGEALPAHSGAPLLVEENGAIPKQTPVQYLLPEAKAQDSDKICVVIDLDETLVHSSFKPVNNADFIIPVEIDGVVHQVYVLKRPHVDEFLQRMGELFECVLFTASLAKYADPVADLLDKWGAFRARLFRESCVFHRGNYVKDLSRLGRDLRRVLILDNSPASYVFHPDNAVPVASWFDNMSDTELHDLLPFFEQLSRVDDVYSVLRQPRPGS

[4] = molecular target: T4, Rac GTPase-activating protein 1 (Homo sapiens, UniProt Q9H0H5); test: blockers of MgcRacGAP-driven Rac1 GTP hydrolysis – biochemical, ADP Hunter fluorescence, primary and confirmatory, confirmation (AID 624330); type: functional
T4 sequence (Q9H0H5 whole entry): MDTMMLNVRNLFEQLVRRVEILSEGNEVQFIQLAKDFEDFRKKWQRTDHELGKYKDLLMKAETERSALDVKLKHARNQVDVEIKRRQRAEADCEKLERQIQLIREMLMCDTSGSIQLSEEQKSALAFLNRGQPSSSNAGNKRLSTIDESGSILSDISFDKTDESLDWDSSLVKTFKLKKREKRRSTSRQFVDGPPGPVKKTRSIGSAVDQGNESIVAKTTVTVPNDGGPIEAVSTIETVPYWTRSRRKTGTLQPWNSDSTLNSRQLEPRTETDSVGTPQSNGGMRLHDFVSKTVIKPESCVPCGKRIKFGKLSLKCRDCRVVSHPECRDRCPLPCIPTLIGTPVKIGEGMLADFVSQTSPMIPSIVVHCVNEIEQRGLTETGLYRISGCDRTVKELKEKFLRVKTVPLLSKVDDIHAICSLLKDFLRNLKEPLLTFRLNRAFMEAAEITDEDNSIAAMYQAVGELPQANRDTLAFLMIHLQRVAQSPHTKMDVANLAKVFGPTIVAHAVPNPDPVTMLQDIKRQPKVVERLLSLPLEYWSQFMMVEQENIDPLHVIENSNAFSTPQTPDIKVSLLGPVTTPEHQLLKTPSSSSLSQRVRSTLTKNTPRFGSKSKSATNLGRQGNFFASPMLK

[5] = viability loss in THP-1 monocytes – THP-1 cells, cytotoxicity control for Vif-APOBEC3G degradation inhibitor project, dose response (AID 1117359); type: functional; conditions: THP-1
[6] = molecular target: T5, High affinity choline transporter 1 (Homo sapiens, UniProt Q9GZV3); test: human choline transporter blockers, potency – cell-based, 5-point CRC, membrane potential dye, dose response (AID 504840); type: functional
T5 sequence (Q9GZV3 whole entry): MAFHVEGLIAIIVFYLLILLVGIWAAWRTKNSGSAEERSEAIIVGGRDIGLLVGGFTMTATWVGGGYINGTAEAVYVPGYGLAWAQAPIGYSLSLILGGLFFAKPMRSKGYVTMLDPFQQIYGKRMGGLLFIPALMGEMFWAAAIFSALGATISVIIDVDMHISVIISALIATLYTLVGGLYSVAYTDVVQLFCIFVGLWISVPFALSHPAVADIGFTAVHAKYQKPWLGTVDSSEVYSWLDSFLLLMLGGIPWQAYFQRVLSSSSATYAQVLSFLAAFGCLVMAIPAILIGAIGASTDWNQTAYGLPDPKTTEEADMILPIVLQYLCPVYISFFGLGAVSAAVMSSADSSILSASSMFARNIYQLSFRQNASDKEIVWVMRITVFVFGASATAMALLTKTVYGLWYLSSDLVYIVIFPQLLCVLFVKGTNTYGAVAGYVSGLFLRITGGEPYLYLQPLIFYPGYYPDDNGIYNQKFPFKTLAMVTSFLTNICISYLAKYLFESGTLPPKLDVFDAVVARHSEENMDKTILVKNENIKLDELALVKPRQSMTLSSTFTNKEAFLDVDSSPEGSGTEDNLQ

[7] = molecular target: T6, Bcl-2-related protein A1 (Mus musculus, UniProt Q07440); type: functional;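 also: confirmatory dose–response counterscreen on Bfl-1, used to check hits from a UBC13 polyubiquitin inhibitor campaign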
T6 sequence (Q07440 whole entry): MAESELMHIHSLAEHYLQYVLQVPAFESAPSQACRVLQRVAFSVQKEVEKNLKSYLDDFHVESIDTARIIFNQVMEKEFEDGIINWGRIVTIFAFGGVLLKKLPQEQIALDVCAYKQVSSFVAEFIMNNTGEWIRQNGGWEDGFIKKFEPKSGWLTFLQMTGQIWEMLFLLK

[8] = molecular target: T7, Ubiquitin-conjugating enzyme E2 N (Homo sapiens, UniProt P61088); type: functional
T7 sequence (P61088 whole entry): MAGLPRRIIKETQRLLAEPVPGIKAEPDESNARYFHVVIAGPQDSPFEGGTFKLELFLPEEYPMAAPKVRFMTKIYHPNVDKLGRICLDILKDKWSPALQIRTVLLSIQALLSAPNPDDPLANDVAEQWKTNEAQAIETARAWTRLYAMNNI

[9] = molecular target: T7, Ubiquitin-conjugating enzyme E2 N; type: functional; remark: listed apart in the source
[10] = molecular target: Protein-tyrosine kinase 2-beta (Homo sapiens, UniProt Q14289);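 also: potency of inhibitors of PYK2 kinase phosphorylation of poly-GT substrate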
[11] = molecular target: Estrogen receptor beta (Homo sapiens, UniProt Q92731); test: blockers of SRC-3 recruitment to ERβ – biochemical, ELISA, streptavidin-HRP readout, orthogonal assay, confirmation (AID 1060)
[12] = test system: Escherichia coli; test: microbe, parasite or virus in culture
[13] = molecular target: T8, Apoptotic protease-activating factor 1 (Homo sapiens, UniProt O14727); type: functional
T8 sequence (O14727 whole entry): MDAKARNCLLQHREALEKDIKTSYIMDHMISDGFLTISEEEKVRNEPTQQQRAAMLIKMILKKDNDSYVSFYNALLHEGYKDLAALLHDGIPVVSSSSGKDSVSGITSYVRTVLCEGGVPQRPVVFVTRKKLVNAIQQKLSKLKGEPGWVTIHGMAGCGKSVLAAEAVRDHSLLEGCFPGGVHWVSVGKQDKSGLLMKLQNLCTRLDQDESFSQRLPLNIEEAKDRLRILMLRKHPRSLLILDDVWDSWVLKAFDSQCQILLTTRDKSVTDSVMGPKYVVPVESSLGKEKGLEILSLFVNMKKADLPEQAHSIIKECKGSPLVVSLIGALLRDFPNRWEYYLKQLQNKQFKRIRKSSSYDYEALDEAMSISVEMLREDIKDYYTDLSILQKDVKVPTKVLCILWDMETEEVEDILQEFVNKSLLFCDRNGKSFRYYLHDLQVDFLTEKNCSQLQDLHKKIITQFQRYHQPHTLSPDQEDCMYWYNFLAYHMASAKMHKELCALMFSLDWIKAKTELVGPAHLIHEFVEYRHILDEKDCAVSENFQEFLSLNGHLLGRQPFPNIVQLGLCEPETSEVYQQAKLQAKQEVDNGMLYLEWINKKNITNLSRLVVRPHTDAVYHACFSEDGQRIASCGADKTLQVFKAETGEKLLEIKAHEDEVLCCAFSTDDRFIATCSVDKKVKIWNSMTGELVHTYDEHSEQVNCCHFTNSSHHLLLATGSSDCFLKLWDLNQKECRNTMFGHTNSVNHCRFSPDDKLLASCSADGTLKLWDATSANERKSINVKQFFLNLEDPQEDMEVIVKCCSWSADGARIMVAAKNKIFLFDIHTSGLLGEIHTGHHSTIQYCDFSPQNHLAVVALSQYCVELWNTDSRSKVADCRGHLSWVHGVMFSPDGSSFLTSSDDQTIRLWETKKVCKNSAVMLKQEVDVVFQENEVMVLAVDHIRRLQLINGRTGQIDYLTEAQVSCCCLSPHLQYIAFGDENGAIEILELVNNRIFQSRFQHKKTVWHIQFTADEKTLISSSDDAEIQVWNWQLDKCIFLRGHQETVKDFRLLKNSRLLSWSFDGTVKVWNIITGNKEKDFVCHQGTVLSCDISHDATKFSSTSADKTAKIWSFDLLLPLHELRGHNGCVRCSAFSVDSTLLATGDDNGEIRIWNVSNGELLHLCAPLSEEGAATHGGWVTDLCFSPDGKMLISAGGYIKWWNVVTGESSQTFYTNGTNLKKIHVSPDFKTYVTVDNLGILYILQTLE

[14] = molecular target: Voltage-gated N-type calcium channel alpha-1B subunit/Amyloid beta A4 precursor protein-binding family A member 1 (Homo sapiens, UniProt Q00975+Q02410); type: protein assay
[15] = A549 cell cytotoxicity, dose response, cytotoxicity control, plate reader, cherry-pick, antagonist series (AID 743412); type: functional, cell-based
[16] = blockade of melanocortin 4 receptor signaling – cell-based, plate reader, cherry pick, counter-screen for LGR2 antagonist project, dose response (AID 743444); type: functional;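 also: transfected HEK 293 cells stimulated with alpha-MSH peptide; potency of inhibitors of the alpha-MSH evoked signal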

Protein-tyrosine kinase 2-beta, sequence (Q14289 whole entry): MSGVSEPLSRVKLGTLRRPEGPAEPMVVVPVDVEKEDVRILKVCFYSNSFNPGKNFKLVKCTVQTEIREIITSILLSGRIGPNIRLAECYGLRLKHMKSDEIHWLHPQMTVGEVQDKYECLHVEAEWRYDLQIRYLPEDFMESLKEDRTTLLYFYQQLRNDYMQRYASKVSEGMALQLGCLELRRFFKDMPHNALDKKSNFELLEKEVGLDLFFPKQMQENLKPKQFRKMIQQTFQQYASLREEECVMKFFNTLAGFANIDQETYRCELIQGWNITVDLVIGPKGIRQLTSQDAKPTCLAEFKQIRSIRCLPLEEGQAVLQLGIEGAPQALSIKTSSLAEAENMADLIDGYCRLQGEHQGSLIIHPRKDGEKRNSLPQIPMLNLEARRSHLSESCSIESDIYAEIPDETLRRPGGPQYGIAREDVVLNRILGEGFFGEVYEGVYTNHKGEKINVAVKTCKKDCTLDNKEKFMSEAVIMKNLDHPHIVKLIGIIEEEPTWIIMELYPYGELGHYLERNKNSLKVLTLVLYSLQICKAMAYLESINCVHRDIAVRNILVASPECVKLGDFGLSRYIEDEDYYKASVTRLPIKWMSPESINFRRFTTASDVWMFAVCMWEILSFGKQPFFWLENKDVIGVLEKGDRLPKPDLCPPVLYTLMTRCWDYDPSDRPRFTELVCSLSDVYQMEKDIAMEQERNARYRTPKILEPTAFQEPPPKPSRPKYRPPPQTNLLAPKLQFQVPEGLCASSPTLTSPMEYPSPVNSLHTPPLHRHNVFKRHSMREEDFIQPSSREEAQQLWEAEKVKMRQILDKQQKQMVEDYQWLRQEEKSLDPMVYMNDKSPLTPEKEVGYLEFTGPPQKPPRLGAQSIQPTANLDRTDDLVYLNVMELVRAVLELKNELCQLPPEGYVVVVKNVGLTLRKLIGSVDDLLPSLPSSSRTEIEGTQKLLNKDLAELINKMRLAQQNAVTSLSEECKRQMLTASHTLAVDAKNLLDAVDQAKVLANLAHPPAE
Voltage-gated N-type calcium channel alpha-1B subunit/Amyloid beta A4 precursor protein-binding family A member 1, sequence (Q00975 whole entry): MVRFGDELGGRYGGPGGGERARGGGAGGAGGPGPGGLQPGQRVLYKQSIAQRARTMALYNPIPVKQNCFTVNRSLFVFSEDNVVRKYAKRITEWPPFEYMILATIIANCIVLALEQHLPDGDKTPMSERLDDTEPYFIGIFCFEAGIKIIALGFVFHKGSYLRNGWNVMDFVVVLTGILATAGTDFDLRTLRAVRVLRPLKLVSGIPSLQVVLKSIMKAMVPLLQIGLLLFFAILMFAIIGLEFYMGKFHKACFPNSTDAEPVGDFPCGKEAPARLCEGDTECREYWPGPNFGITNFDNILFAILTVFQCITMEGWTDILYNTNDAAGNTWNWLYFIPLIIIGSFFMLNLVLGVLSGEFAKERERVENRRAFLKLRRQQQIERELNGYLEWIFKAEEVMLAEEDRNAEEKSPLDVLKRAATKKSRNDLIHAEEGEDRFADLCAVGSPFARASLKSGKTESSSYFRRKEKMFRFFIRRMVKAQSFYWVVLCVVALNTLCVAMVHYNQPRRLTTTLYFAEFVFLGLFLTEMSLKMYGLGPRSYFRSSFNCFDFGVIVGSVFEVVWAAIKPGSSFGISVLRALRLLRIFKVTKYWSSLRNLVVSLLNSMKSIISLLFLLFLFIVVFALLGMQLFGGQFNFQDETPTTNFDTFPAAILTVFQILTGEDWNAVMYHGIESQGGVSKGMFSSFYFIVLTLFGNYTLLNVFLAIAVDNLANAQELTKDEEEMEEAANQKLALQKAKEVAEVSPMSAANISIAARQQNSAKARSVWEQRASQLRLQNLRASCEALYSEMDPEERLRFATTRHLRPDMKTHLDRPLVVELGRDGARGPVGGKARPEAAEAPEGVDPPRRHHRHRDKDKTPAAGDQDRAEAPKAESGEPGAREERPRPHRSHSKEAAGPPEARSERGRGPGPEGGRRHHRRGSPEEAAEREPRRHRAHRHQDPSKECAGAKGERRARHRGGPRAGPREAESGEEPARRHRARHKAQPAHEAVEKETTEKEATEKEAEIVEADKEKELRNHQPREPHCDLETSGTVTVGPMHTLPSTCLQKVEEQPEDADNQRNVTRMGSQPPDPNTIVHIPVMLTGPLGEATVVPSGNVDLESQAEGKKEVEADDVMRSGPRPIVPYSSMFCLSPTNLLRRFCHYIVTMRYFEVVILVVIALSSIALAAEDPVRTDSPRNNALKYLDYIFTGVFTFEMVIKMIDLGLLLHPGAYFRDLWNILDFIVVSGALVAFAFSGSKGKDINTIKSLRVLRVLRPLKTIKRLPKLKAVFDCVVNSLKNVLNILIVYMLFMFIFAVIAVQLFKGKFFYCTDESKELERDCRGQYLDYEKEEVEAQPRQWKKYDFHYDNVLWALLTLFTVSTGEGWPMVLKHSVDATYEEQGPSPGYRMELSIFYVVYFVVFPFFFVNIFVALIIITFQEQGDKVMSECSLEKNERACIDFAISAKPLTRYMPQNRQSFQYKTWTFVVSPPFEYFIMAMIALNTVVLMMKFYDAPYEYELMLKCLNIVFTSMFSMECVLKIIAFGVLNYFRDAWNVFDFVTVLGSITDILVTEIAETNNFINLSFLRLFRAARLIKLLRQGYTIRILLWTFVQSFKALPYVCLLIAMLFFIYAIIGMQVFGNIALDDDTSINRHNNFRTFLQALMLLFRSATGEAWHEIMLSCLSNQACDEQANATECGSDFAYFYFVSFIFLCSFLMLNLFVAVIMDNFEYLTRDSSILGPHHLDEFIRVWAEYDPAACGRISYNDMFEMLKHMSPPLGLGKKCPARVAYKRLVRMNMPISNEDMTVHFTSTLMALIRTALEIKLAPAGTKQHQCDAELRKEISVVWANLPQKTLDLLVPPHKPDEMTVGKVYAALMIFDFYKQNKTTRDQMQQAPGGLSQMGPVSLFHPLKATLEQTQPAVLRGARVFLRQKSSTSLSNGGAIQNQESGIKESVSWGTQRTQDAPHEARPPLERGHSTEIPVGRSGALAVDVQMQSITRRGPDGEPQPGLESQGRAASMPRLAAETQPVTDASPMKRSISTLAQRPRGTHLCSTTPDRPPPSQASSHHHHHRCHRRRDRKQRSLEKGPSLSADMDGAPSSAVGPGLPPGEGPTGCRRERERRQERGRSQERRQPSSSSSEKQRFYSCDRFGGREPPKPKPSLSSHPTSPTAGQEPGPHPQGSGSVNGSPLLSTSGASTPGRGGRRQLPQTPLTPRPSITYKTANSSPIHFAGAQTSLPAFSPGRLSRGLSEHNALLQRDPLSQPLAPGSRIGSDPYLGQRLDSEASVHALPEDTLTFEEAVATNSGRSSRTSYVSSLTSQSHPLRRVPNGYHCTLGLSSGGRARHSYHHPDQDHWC
Voltage-gated N-type calcium channel alpha-1B subunit/Amyloid beta A4 precursor protein-binding family A member 1, sequence (Q02410 whole entry): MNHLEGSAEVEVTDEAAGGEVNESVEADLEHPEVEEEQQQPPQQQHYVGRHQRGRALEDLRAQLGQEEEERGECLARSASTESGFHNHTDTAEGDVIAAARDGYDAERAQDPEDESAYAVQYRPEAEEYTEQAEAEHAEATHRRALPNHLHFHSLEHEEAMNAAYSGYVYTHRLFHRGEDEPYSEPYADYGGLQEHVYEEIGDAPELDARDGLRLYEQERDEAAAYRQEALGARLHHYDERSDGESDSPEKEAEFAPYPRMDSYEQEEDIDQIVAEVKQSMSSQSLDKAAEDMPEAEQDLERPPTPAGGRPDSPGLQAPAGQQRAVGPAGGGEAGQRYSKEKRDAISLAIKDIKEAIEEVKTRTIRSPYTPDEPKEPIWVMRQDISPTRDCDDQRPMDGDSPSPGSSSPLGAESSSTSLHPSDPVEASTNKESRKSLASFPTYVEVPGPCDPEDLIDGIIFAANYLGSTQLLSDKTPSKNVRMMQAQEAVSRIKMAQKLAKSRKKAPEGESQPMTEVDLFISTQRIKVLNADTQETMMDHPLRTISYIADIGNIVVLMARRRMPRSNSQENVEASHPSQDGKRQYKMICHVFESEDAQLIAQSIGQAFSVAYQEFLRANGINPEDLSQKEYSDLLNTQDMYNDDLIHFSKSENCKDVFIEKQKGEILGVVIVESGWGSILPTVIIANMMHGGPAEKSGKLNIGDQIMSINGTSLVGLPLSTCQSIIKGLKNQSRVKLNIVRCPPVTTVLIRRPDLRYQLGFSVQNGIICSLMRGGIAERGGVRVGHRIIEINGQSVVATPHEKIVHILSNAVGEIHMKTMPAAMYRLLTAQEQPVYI
Estrogen receptor beta, sequence (Q92731 whole entry): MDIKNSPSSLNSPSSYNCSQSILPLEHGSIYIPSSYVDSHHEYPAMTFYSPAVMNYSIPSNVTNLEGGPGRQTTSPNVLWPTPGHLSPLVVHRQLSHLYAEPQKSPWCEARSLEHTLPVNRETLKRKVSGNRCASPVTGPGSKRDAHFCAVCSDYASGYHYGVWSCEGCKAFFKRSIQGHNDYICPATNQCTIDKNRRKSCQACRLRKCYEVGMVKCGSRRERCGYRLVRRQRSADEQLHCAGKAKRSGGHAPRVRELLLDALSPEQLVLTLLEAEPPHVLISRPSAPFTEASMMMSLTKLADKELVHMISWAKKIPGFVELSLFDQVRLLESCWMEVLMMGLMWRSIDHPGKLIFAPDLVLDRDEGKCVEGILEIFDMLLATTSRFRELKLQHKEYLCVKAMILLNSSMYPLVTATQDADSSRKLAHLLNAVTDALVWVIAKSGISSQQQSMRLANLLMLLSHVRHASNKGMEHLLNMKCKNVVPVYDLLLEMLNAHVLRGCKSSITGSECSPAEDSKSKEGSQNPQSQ

SMILES: Cn1cccc1/C=C1\C(=O)NC(=O)N(Cc2ccco2)C1=O
- EC50 [1]: > 300 µM (not active)
- EC50 [2]: 57.7 µM (active)
- IC50 [3]: 4.88 µM (active)
- IC50 [4]: 116 µM (active)
- CC50 [5]: > 40 µM (active)

SMILES: Clc1ccc(CSCCc2ccncc2)cc1
- CC50 [5]: > 40 µM (active)

SMILES: Cc1ccc(-c2nnc(OCC3CCCO3)c3ccccc23)cc1 (stereo unspecified)
- IC50 [6]: 14.5 µM (active)

SMILES: CC1CCN(S(=O)(=O)c2ccc3c(c2)N(CC(=O)NCCCN2CCCCC2C)C(=O)CS3)CC1 (stereo unspecified)
- IC50 [6]: 13 µM (active)

SMILES: Cc1c(NC(=O)CCCCCN2C(=O)c3ccccc3C2=O)c(=O)n(-c2ccccc2)n1C
- IC50 [7]: > 20 µM (inactive)
- IC50 [8]: 1.23 µM (active)
- IC50 [9]: 0.709 µM (active)

SMILES: O=C(OCC(=O)N1CCN(C(=O)c2ccco2)CC1)c1cc(-c2ccc(Cl)c(Cl)c2Cl)nc2ccccc12
- IC50 [10]: 5.94 µM (active)

SMILES: N#Cc1c(NC(=O)CN2CCCCC2)sc2c1CCC2
- IC50 [11]: 0.0561 µM (not active)

SMILES: CC(C)c1ccc(NC(=O)C[n+]2ccn(C3=C([O-])c4ccccc4C3=O)c2)cc1
- IC50 [7]: > 20 µM (inactive)
- IC50 [8]: 11.8 µM (active)
- IC50 [9]: 17.8 µM (active)

SMILES: Cc1ccc(NC(=O)COC(=O)CCC(=O)c2cccs2)c(C)c1
- AC50 [12]: > 150 µM (inactive)

SMILES: COc1ccc(CCN=C(N)NS(=O)(=O)c2cccs2)cc1
- AC50 [12]: 112 µM (active)

SMILES: CCCN(CC(=O)Nc1ccccc1OC)C(=O)CSc1ccc(Br)cc1C
- IC50 [13]: 48.4 µM (active)
- CC50 [5]: > 40 µM (active)

SMILES: CCOc1ccc(NC(=O)Cn2cncc2-c2ccc([N+](=O)[O-])cc2)cc1
- IC50 [14]: 5.93 µM (active)

SMILES: C#CCOCCOCCOCCNc1nc(N2CCN(C(=O)[C@H](CCCCN)n3cc(CN)nn3)CC2)nc(N2CCN(C(=O)[C@H](CCCN=C(N)N)n3cc(C(N)[C@H](C)CC)nn3)CC2)n1 (stereo partly specified)
- IC50 [7]: > 20 µM (inactive)
- IC50 [8]: 12 µM (active)
- IC50 [9]: 7.94 µM (active)

SMILES: O=C(C1CC(=O)N(C2CCCC2)C1)N1CCN(c2ccc(F)cc2)CC1 (stereo unspecified)
- AC50 [12]: 31.8 µM (active)

SMILES: COc1ccc(S(=O)(=O)Nc2ccc3c(c2)C(=O)N([C@@H](C)CO)C[C@@H](C)[C@H](CN(C)C(=O)Nc2cccc4ccccc24)OCCCC[C@H](C)O3)cc1
- AC50 [15]: > 52 µM (inactive)
- AC50 [16]: 2.05 µM (active)

SMILES: O=C(N/N=C/c1ccsc1)c1c[nH]c2ccccc12
- IC50 [6]: 3.8 µM (active)

SMILES: COc1ccccc1NC(=O)c1c(/N=C/c2ccccc2O)cnn1C
- IC50 [7]: > 20 µM (inactive)
- IC50 [8]: 10.5 µM (active)
- IC50 [9]: 10.4 µM (active)

— ChEMBL document CHEMBL1201862, “PubChem BioAssay data set” (2004)
